The record followed here is ChEMBL document CHEMBL2157960, “Novel cyanocombretastatins as potent tubulin polymerisation inhibitors” (Bioorg Med Chem Lett, 2012).

One test deals with Tubulin (Sus scrofa, UniProt P02554+P02550). As to the kind of experiment: Inhibition of pig tubulin polymerization by spectrophotometry. Format: protein assay.
For another test, the system named is K562. Description: Antiproliferative activity against human K562 cells by MTT assay. Type of test: functional, cell-based.
The next test relates to MDA-MB-468. As to the kind of experiment: Antiproliferative activity against human MDA-MB-468 cells expressing NQO1 by MTT assay. Format: functional, cell-based.
The subject of a further test is MCF7. Description: Cytotoxicity against human MCF7 cells. Format: functional, cell-based.

Turning to `COc1ccc(/C=C(/C#N)c2cc(OC)c(OC)c(OC)c2)cc1F`, the IC50 came out at 4200 nM on Tubulin, 6.7 nM in the test with K562 and 4.1 nM with MDA-MB-468.

Consider `COc1ccc(/C=C/c2cc(OC)c(OC)c(OC)c2)cc1F`, for which the IC50 in the test with K562 is over 2500 nM.

In turn, `COc1ccc(/C=C/c2cc(OC)c(OC)c(OC)c2)cc1B(O)O` displayed an IC50 in the test with MCF7 of 470000 nM.

Take `COc1ccc(/C=C/c2cc(OC)c(OC)c(OC)c2)cc1Br`: the midpoint of inhibition in the test with K562, the IC50, lay at 7830 nM.

For the molecule `COc1ccc(/C=C\c2cc(OC)c(OC)c(OC)c2)cc1O` [COMBRETASTATIN A4], the 50% inhibitory concentration (IC50) with K562 amounted to 2.3 nM; with MDA-MB-468, 3.1 nM.

For `COc1ccc(/C=C(\C#N)c2cc(OC)c(OC)c(OC)c2)cc1F`, the IC50 is 18500 nM at Tubulin, 18.7 nM with K562 and 20.3 nM in the test with MDA-MB-468.

With `C#Cc1cc(/C=C(\C#N)c2cc(OC)c(OC)c(OC)c2)ccc1OC`, the figures for the IC50 against Tubulin, in the test with K562 and in the test on MDA-MB-468 were 25300 nM, 30.2 nM and 46.5 nM, respectively.

Consider `COc1ccc(/C=C(\C#N)c2cc(OC)c(OC)c(OC)c2)cc1I`, for which the IC50 was 43800 nM on Tubulin, 42.6 nM in the test with K562 and 85.3 nM in the test with MDA-MB-468.

Take `COc1ccc(/C=C(\C#N)c2cc(OC)c(OC)c(OC)c2)cc1Br`: the 50% inhibitory concentration (IC50) at Tubulin turned out to be 35600 nM; with K562 it was 49.5 nM; in the test with MDA-MB-468, 70.6 nM.

Take `COc1ccc(/C=C\c2cc(OC)c(OC)c(OC)c2)cc1F`: in the test on K562, the IC50 was 7 nM.

For `COc1ccc(/C=C(\C#N)c2cc(OC)c(OC)c(OC)c2)cc1B(O)O`, the figures for the 50% inhibitory concentration (IC50) at Tubulin, with K562 and in the test with MDA-MB-468 were 17400 nM, 20.4 nM and 35.7 nM, respectively.
